Data on 3 compounds can be found in patent US11235022B2, “Methods of diagnosis, selection, and treatment of diseases and conditions caused by or associated with methanogens” (Cedars-Sinai Medical Center, priority 2013, dated 2022).

For assay [1], the system named is small bowel motility / small intestinal transit. Particulars: cited from earlier work.
The nature of assay [2]: Example 4A: glucose tolerance test and cholesterol before and after antibiotic in single patients. The assay is classed as in vivo, human. The method, then:
After an administration of rifaximin at 550 mg, three times a day, the peak glucose was 161 mg/dL. Cholesterol for the same patient was 200 and then 171 after treatment. […] After an administration of neomycin at 500 mg, twice daily, the peak glucose was 121. Cholesterol was 202 before the treatment and was down to 178 after treatment.

Assay [3] concerns methane on breath testing; constipation symptoms. Particulars: retrospective study; 10 days; cited from earlier work.
Assay [4] has as its system methane producers with constipation predominant IBS. Particulars: placebo 5.0±5.1%; cited from earlier work.

For `C` [methane], in assay [1] (5 dogs, methane infused through mid-small bowel fistula), the “reduction of proximal small bowel motility (average)” value is recorded as 59%. In addition, the “slowing of small intestinal transit” value in assay [1] (in vivo animal study, infusion of methane into the small intestine) is given as 59%.

Compound `CO[C@H]1/C=C/O[C@@]2(C)Oc3c(C)c(O)c4c(O)c(c5c(nc6cc(C)ccn65)c4c3C2=O)NC(=O)/C(C)=C\C=C\[C@H](C)[C@H](O)[C@@H](C)[C@@H](O)[C@@H](C)[C@H](OC(C)=O)[C@@H]1C` [rifaximin] returned a cholesterol after treatment in assay [2] (Patient 1, rifaximin 550 mg three times a day, 200 before) of 171. The “peak glucose on glucose tolerance test after treatment” value in assay [2] (Patient 1, rifaximin 550 mg three times a day, 260 before antibiotics) was found to be 161 mg/dL. For the same compound, in assay [3], the “reduction in constipation symptoms” value is listed as 56% and the reduction in methane was 28%.

Regarding neomycin, the “peak glucose on glucose tolerance test after treatment” value in assay [2] (Patient 2, neomycin 500 mg twice daily, 154 before antibiotics) turned out to be 121. In assay [2] (Patient 2, neomycin 500 mg twice daily, 202 before), the cholesterol after treatment is reported as 178. For the same compound, in assay [4], the improvement in constipation is on record as 44.0±12.3%. In addition, in assay [3], the “reduction in constipation symptoms” value is recorded as 63% and the reduction in methane is on record as 33%.
